Assay results published in patent US11827628B2, “Compositions and methods for inhibition of the JAK pathway” (Rigel Pharmaceuticals, Inc., priority 2005, dated 2023).

Tested on: up-regulation of ICAM-1 (CD54) by IFNγ in A549 lung epithelial cells
Experiment: A549 Epithelial Line Stimulated with IFNγ (ICAM-1 surface expression, FACS)
Format: cell-based, human
Settings: A549 cells stimulated with IFNγ, ICAM-1 expression by FACS; read-out: IC50, Example 43
In short: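 A549 cells pre-incubated 1 h with compound (30 μM to 14 nM, 5% FBS, 0.3% DMSO), then stimulated with IFNγ (75 ng/mL) for 24 h. Surface ICAM-1 stained with APC anti-CD54 and read by flow cytometry; geometric mean of live-gated events plotted against concentration for EC50.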

| Compound | IC50 [µM] |
| --- | --- |
| N2-[3-Aminosulfonyl-4-(4-methylpiperazine-1-yl)phenyl]-N4-(3-cyanomethylene-1H-indol-6-yl)-5-fluoro-2,4-pyrimidinediamine [IX-17] | 21.9 |
| CCS(=O)(=O)N1CCc2cc(Nc3nc(Nc4ccc(C)c(S(N)(=O)=O)c4)ncc3F)ccc2C1 [VII-15, N2-(3-aminosulfonyl-4-methyl)phenyl-N4-[(N-ethylsulfonyl)-1,2,3,4-tetrahydroisoquinolin-6-yl]-5-fluoro-2,4-pyrimidinediamine] | 13.1 |
| NC1CCOc2ccc(Nc3nc(Nc4ccc(S(N)(=O)=O)cc4)ncc3F)cc21 (stereo not drawn) [VII-29, N2-(4-Aminosulfonylphenyl)-N4-(chroman-4-amine-6-yl)-5-fluoro-2,4-pyrimidinediamine] | 30.5 |
| COCCn1ncc2cc(Nc3nc(Nc4cccc(S(N)(=O)=O)c4)ncc3F)ccc21 [VII-23, N2-(3-Aminosulfonylphenyl)-5-fluoro-N4-[1-(2-methoxyethyl)indazolin-5-yl]-2,4-pyrimidinediamine] | 61.3 |
| CCS(=O)(=O)N1CCc2cc(Nc3nc(Nc4cccc(S(N)(=O)=O)c4)ncc3F)ccc2C1 [VII-14, N2-(3-aminosulfonyl)phenyl-N4-[(N-ethylsulfonyl)-1,2,3,4-tetrahydroisoquinolin-6-yl]-5-fluoro-2,4-pyrimidinediamine] | 9.93 |
| N2-[3-Aminosulfonyl-4-(4-methylpiperazine-1-yl)phenyl]-N4-(3-cyanomethylene-1H-indol-7-yl)-5-fluoro-2,4-pyrimidinediamine [IX-18] | 55.2 |
| N#CCN1C(=O)CSc2ccc(Nc3nc(Nc4cccc(S(N)(=O)=O)c4)ncc3F)cc21 [VII-36, N2-(3-Aminosulphonylphenyl)-5-fluoro-N4-(3-oxo-4-cyanomethyl-benzo[1,4]thiazin-6-yl)-2,4-pyrimidinediamine] | 82.8 |
| CNC(=O)N1CCCc2cc(Nc3nc(Nc4ccc(C)c(S(N)(=O)=O)c4)ncc3F)ccc21 [VII-19, N2-(3-Aminosulfonyl-4-methylphenyl)-5-fluoro-N4-[1-(methylaminocarbonyl)-1,2,3,4-tetrahydroquin-6-yl]-2,4-pyrimidinediamine] | 12.5 |
| N#CCn1ccc2cc(Nc3nc(Nc4cccc(S(N)(=O)=O)c4)ncc3F)ccc21 [IX-5, N2-(3-Aminosulfonylphenyl)-N4-(1-cyanomethyleneindol-5-yl)-5-fluoro-2,4-pyrimidinediamine] | 6.1 |

Same assay, conditions: A549 epithelial line stimulated with IFNγ; ICAM-1 expression by FACS; read-out: IC50, Example 43

| Compound | IC50 [µM] |
| --- | --- |
| Cc1ccc(Nc2ncc(F)c(Nc3ccc(OCc4cccnc4)cc3)n2)cc1S(N)(=O)=O [Compound I-189, N2-(3-Aminosulfonyl-4-methylphenyl)-5-fluoro-N4-[4-(3-pyridinyl)methyleneoxyphenyl]-2,4-pyrimidinediamine] | 6.74 |
| Cc1cc(Nc2nc(Nc3cccc(S(N)(=O)=O)c3)ncc2F)ccc1OC(C)C(N)=O (racemic) [Compound I-120, Racemic N4-[4-(1-Aminocarbonyl)ethoxy-3-methyl]phenyl-N2-(3-aminosulfonyl)phenyl-5-fluoro-2,4-pyrimidinediamine] | 20 |
| CN1CCN(c2ccc(Nc3ncc(F)c(Nc4ccc(OCC#N)c(F)c4)n3)cc2S(N)(=O)=O)CC1 [Compound I-10, N2-[3-Aminosulfonyl-4-(4-methylpiperazine-1-yl)phenyl]-5-fluoro-N4-(4-cyanomethyleneoxy-3-fluorophenyl)-2,4-pyrimidinediamine] | 6.55 |
| Cc1cc(Nc2nc(Nc3ccc(S(N)(=O)=O)cc3)ncc2F)ccc1OC(C)C(N)=O (racemic) [Compound I-119, Racemic N4-[4-(1-Aminocarbonyl)ethoxy-3-methyl]phenyl-N2-(4-aminosulfonyl)phenyl-5-fluoro-2,4-pyrimidinediamine] | 9.67 |
| Cc1ccc(Nc2ncc(F)c(Nc3cc(C)c(OC(C)C(N)=O)c(C)c3)n2)cc1S(N)(=O)=O (racemic) [Compound I-124, Racemic N4-[4-(1-Aminocarbonyl)ethoxy-3,5-dimethyl]phenyl-N2-(3-aminosulfonyl-4-methyl)phenyl-5-fluoro-2,4-pyrimidinediamine] | 10.4 |
| Cc1ccc(Nc2ncc(Br)c(Nc3ccc(OCC#N)cc3)n2)cc1S(N)(=O)=O [Compound I-14, N2-(3-Aminosulfonyl-4-methylphenyl)-5-bromo-N4-(4-cyanomethyleneoxyphenyl)-2,4-pyrimidinediamine] | 0.612 |
| CC(Oc1ccc(Nc2nc(Nc3cccc(S(N)(=O)=O)c3)ncc2F)cc1)C(N)=O (racemic) [Compound I-117, Racemic N4-[4-(1-Aminocarbonyl)ethoxy]phenyl-N2-(3-aminosulfonyl)phenyl-5-fluoro-2,4-pyrimidinediamine] | 36.4 |
| Cc1cc(Nc2nc(Nc3ccc(C)c(S(N)(=O)=O)c3)ncc2F)ccc1OC(C)C(N)=O (racemic) [Compound I-121, Racemic N4-[4-(1-Aminocarbonyl)ethoxy-3-methyl]phenyl-N2-(3-aminosulfonyl-4-methyl)phenyl-5-fluoro-2,4-pyrimidinediamine] | 14.5 |
| Cc1ccc(Nc2ncc(F)c(Nc3cc(C)c(OCC(N)=O)c(C)c3)n2)cc1S(N)(=O)=O [Compound I-96, N4-(4-Aminocarbonylmethoxy-3,5-dimethyl)phenyl-N2-(3-aminosulfonyl-4-methyl)phenyl-5-fluoro-2,4-pyrimidinediamine] | 40.9 |
| CNS(=O)(=O)c1cc(Nc2ncc(F)c(Nc3ccc(OCc4cccnc4)cc3)n2)ccc1C [Compound I-190, 5-Fluoro-N2-[3-(N-methylaminosulfony)-4-methylphenyl]-5-fluoro-N4-[4-(3-pyridinyl)methyleneoxyphenyl]-2,4-pyrimidinediamine] | 9.31 |
| NS(=O)(=O)c1cccc(Nc2ncc(F)c(Nc3ccc(OCc4cccnc4)cc3)n2)c1 [Compound I-188, N2-(3-Aminosulfonylphenyl)-5-fluoro-N4-[4-(3-pyridinyl)methyleneoxyphenyl]-2,4-pyrimidinediamine] | 15.1 |
| CN1CCN(c2ccc(Nc3ncc(F)c(Nc4ccc(OCC#N)cc4)n3)cc2S(N)(=O)=O)CC1 [Compound I-9, N2-[3-Aminosulfonyl-4-(4-methylpiperazin-1-yl)phenyl]-5-fluoro-N4-(4-cyanomethyleneoxyphenyl)-2,4-pyrimidinediamine] | 15.6 |
